Experimental findings from ChEMBL document CHEMBL5126523, “Recent advances in DDR (DNA damage response) inhibitors for cancer therapy” (Eur J Med Chem, 2022) are described below.

In data set [1] the target is T1, Poly [ADP-ribose] polymerase 1 (Homo sapiens, UniProt P09874). Description: Inhibition of PARP1 (unknown origin) incubated for 1 hr by chemiluminescence assay.
In data set [2] the target is T2, Phosphatidylinositol 4,5-bisphosphate 3-kinase catalytic subunit alpha isoform (Homo sapiens, UniProt P42336). Briefly: Inhibition of PI3K-alpha (unknown origin) incubated for 40 mins in presence of ATP by ELISA.
For data set [3], the system named is HCT-116. Briefly: Inhibition of cell proliferation in human HCT-116 cells incubated for 72 hrs by SRB assay. It is filed as functional, cell-based. The note with it: HCT-116, 72 h.
Another data set has as its system HCC1937. Description: Inhibition of cell proliferation in human HCC1937 cells incubated for 72 hrs by SRB assay. The note with it: HCC1937, 72 h. It is filed as functional, cell-based.
Another data set has as its system MDA-MB-231. Description: Inhibition of cell proliferation in human MDA-MB-231 cells incubated for 72 hrs by SRB assay. It is filed as functional, cell-based. The note with it: MDA-MB-231, 72 h.
In data set [4] the target is T3, DNA-dependent protein kinase catalytic subunit (Homo sapiens, UniProt P78527). Description: Inhibition of full-length human DNA-PK expressed in baculovirus expression system using p53 as substrate incubated for 1 hr in presence of ATP by ELISA.
Data set [5] addresses T4, Serine-protein kinase ATM (Homo sapiens, UniProt Q13315). Description: Inhibition of ATM in human MCF7 cells […] incubated for 1 hr by Cell Western assay. The format is cell-based.
The subject of another data set is LoVo. Briefly: Inhibition of cell growth in human LoVo cells assessed as measuring ATP content incubated for 3 days by Cell Titer Glo assay. The note with it: 72 h. It is filed as functional, cell-based.
In data set [6] the target is T5, ATR/ATRIP (Homo sapiens, UniProt Q13535). Briefly: Inhibition of full-length human recombinant FLAG-tagged ATR/c-Myc-tagged ATRIP using p53 as substrate incubated for 30 mins in presence of ATP by HTRF assay. The format is protein-complex assay.
For data set [7], the target named is T5, ATR/ATRIP. Briefly: Inhibition of full-length recombinant human ATR/ATRIP using p53 as substrate incubated for 30 mins in presence of ATP by HTRF assay. It is filed as protein-complex assay.
The test system of data set [8] is HCT-116. Description: Inhibition of cell proliferation in human HCT-116 incubated for 48 hrs by Cell Titer Glo assay. The format is functional, cell-based. The note with it: HCT-116, 48 h.
The next data set concerns NCI-H23. Description: Inhibition of cell proliferation in human NCI-H23 incubated for 48 hrs by Cell Titer Glo assay. The format is functional, cell-based. The note with it: NCI-H23, 48 h.
For data set [9], the target named is T1, Poly [ADP-ribose] polymerase 1. Briefly: Inhibition of N-terminal GST-tagged recombinant human PARP1 (2 to 1014 residues) expressed in Sf9 insect cells incubated for 1 hr by colorimetric assay.
Data set [10] in a line: Oral bioavailability in BALB/c mouse at 2 mg/kg by LC-MS/MS analysis. It is filed as ADME, organism-based. The note with it: in vivo.
In data set [11] the target is T1, Poly [ADP-ribose] polymerase 1. Briefly: Inhibition of PARP1 (unknown origin) by ELISA.
Data set [12] deals with T5, ATR/ATRIP. Description: Inhibition of human FLAG-tagged ATR/c-Myc-tagged ATRIP expressed in mammalian expression system using p53 as substrate incubated for 2 hrs by fluorescence based assay.
For data set [13], the target named is T3, DNA-dependent protein kinase catalytic subunit. Briefly: Inhibition of DNA-PK (unknown origin) assessed as inhibition constant using Glu-Pro-Pro-Leu-Ser-Gln-Glu-Ala-Phe-Ala-Asp-Leu-Trp-Lys-Lys-Lys peptide as substrate incubated for 45 mins in presence of [33P]-ATP by scintillation counting method.
The target of data set [14] is Poly [ADP-ribose] polymerase tankyrase-1 (Homo sapiens, UniProt O95271). Briefly: Inhibition of tankyrase 1 (unknown origin) incubated for 1 hr by chemiluminescence assay.
In data set [15] the target is Poly [ADP-ribose] polymerase tankyrase-2 (Homo sapiens, UniProt Q9H2K2). Briefly: Inhibition of tankyrase 2 (unknown origin) incubated for 1 hr by chemiluminescence based assay.
Data set [16] deals with T5, ATR/ATRIP. Description: Inhibition of full-length human recombinant FLAG-tagged ATR/c-Myc-tagged ATRIP using p53 as substrate incubated for 30 mins in presence of ATP by fluorescence based assay. It is filed as protein-complex assay.
Another data set deals with DU-145. Briefly: Inhibition of cell proliferation in human DU-145 cells incubated for 4 days by MTT assay. The note with it: DU-145, 96 h. The format is functional, cell-based.
The test system of a further data set is NCI-H460. Briefly: Inhibition of cell proliferation in human NCI-H460 cells incubated for 4 days by MTT assay. The format is functional, cell-based. The note with it: NCI-H460, 96 h.
For data set [17], the target named is T3, DNA-dependent protein kinase catalytic subunit. Description: Inhibition of DNA-PK (unknown origin) incubated for 3 hrs by ADP-Glo kinase assay.
In data set [18] the target is Serine/threonine-protein kinase ATR (Homo sapiens, UniProt Q13535). Briefly: Inhibition of ATR (unknown origin).
Data set [19] concerns the target T4, Serine-protein kinase ATM. Description: Inhibition of ATM (unknown origin).
The species entered for data set [20] is Homo sapiens. Briefly: Selectivity index, ratio of IC50 for ATM (unknown origin) to IC50 for ATR (unknown origin).
The species named for data set [21] is Homo sapiens. Briefly: Selectivity index, ratio of IC50 for ATM (unknown origin) to IC50 for PI3K-alpha (unknown origin).
The species entered for data set [22] is Homo sapiens. Description: Selectivity index, ratio of IC50 for ATM (unknown origin) to IC50 for mTOR (unknown origin).
Data set [23] has as its target T2, Phosphatidylinositol 4,5-bisphosphate 3-kinase catalytic subunit alpha isoform. Description: Inhibition of PI3K-alpha (unknown origin).
In data set [24] the target is Serine/threonine-protein kinase mTOR (Homo sapiens, UniProt P42345). Briefly: Inhibition of mTOR (unknown origin).

T5 sequence (Q13535 whole entry): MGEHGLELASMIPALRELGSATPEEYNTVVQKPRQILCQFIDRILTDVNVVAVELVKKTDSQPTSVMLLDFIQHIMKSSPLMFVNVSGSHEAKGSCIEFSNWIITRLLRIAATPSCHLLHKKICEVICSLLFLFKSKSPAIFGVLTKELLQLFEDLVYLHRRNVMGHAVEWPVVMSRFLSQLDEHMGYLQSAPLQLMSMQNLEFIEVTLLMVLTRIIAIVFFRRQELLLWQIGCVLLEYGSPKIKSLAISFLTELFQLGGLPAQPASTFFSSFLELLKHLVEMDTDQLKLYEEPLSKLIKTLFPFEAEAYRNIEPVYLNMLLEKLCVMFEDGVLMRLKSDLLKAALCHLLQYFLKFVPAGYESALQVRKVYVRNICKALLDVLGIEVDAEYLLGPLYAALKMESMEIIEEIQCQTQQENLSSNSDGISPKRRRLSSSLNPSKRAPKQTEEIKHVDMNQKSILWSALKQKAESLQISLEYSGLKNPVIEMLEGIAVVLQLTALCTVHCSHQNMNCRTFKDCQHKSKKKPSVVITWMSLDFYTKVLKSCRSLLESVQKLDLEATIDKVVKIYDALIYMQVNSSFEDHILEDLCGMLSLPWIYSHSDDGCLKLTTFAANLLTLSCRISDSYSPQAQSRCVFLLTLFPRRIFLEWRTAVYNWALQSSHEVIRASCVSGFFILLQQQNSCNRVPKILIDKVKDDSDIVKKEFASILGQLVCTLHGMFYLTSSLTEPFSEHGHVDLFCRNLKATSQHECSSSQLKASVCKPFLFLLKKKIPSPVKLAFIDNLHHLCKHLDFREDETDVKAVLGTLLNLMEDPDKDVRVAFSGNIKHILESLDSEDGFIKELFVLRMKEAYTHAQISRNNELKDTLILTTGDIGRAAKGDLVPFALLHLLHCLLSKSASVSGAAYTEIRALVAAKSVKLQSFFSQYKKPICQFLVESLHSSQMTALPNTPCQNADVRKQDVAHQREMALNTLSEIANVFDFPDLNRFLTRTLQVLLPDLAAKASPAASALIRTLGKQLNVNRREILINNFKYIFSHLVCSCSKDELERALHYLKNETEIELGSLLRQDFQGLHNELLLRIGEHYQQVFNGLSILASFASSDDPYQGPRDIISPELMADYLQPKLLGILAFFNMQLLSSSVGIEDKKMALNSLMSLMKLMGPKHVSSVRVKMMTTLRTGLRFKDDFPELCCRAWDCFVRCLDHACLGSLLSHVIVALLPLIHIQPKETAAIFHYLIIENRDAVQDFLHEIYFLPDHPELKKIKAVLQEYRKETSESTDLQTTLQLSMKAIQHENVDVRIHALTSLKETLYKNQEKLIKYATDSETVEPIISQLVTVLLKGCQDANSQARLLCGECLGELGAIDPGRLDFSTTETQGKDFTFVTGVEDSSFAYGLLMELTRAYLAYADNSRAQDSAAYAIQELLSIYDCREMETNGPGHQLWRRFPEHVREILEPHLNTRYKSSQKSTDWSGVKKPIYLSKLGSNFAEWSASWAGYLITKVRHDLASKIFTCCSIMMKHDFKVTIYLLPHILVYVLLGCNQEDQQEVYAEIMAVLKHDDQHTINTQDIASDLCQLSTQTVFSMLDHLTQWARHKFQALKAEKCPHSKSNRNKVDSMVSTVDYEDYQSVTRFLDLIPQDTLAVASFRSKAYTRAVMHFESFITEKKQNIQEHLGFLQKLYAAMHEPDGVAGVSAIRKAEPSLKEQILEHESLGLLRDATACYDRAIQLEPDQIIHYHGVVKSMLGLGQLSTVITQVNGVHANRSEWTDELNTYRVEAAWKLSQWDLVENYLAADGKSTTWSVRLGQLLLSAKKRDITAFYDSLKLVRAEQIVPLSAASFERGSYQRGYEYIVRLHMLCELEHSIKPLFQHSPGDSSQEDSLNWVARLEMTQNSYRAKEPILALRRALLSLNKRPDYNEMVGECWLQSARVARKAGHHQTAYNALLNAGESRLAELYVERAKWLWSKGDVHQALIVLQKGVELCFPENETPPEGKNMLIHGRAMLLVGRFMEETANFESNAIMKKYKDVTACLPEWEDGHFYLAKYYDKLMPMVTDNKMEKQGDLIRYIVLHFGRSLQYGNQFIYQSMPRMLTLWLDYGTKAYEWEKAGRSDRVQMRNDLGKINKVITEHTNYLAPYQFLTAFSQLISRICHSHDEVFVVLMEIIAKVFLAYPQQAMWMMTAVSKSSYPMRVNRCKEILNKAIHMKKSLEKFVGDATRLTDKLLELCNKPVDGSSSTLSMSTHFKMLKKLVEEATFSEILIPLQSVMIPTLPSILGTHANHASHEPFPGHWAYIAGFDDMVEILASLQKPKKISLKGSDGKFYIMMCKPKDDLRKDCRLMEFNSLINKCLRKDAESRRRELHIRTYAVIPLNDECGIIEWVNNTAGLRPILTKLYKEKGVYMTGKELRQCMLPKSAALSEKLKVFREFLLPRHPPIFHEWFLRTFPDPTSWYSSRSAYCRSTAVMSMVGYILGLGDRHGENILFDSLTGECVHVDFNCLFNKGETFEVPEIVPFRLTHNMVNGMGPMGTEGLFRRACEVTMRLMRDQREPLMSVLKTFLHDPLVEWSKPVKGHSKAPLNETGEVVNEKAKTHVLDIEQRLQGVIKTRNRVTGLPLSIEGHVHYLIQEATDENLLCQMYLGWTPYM
T5 sequence (Q8WXE1 whole entry, further chain): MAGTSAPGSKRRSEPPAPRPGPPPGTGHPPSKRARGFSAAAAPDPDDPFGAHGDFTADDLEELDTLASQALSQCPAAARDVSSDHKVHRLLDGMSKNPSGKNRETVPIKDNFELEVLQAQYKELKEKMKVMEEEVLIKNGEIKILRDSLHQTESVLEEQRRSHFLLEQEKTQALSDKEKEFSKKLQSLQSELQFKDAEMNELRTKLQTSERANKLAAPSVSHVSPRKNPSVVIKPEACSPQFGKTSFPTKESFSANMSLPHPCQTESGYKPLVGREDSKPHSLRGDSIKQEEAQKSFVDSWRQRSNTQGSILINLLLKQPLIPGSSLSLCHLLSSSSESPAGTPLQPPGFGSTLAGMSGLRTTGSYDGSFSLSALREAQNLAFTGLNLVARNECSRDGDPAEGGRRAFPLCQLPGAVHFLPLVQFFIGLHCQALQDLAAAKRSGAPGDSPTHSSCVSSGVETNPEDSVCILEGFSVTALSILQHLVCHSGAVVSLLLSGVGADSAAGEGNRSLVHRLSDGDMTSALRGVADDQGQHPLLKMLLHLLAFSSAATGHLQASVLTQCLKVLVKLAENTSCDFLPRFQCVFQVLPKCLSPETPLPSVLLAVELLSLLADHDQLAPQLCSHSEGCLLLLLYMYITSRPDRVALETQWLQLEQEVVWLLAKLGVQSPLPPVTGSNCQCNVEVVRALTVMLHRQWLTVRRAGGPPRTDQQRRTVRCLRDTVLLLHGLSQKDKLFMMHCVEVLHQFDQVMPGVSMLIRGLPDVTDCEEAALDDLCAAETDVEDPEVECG
T1 sequence (P09874 whole entry, canonical isoform): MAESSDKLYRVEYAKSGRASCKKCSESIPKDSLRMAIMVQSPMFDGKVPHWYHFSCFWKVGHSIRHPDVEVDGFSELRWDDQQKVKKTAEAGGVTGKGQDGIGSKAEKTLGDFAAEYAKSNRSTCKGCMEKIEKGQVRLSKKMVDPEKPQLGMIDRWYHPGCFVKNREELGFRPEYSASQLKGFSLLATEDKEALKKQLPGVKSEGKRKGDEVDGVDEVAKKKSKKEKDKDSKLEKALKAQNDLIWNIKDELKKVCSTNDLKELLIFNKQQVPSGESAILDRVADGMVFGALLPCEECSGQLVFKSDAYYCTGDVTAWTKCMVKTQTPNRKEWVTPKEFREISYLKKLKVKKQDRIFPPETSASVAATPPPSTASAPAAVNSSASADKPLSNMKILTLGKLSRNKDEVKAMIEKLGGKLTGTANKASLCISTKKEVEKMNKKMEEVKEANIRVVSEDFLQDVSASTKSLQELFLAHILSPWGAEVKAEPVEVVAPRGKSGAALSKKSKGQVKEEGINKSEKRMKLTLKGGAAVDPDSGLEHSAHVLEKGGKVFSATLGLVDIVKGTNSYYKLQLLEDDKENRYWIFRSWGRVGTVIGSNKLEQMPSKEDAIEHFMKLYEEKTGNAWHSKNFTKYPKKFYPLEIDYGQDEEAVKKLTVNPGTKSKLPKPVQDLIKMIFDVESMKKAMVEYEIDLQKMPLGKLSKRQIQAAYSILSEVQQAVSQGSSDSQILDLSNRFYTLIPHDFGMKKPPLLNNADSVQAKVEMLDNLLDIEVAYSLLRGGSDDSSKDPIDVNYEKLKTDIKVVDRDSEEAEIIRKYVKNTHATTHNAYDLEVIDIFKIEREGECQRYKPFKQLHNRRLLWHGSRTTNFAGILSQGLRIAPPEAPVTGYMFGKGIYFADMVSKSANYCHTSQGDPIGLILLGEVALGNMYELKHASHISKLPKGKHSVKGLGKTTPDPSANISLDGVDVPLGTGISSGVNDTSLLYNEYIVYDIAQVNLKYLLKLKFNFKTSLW
Sequence of Serine/threonine-protein kinase ATR (Q13535 whole entry): as the sequence (Q13535 whole entry) above

Consider `NC(=O)c1cccc2cc(C(=O)N3CCN(c4nc(-c5cnc(N)nc5)nc(N5CCOCC5)n4)CC3)oc12`, for which the IC50 in data set [1] is 6.3 nM; in data set [2], 5.8 nM; in the data set on HCT-116 [3] it was 94 nM; in the data set on HCC1937, 61 nM; in the data set on MDA-MB-231, 4120 nM.
Regarding `CCc1ncc(S(=O)(=O)Nc2cc(-c3ccc4ncc5c(c4c3)C3(CCC3)C(=O)N5C)cnc2OCCCN(C)C)s1`, the IC50 in data set [4] and in [5] was 1 nM throughout.
Take `C[C@@H]1COCCN1c1nc(-c2c(N)ncc3[nH]ccc23)nc2c1OC1CC2(S(C)(=O)=O)C1`: the IC50 in the data set on LoVo was 1.36 nM; at ATR/ATRIP [6], 62.1 nM.
Consider `C[C@@H]1COCCN1c1cc(-c2ccnn2C)nc(-n2c(NCCO)nc3ccc(F)cc32)n1`, for which the figures for the IC50 on ATR/ATRIP [7], in the data set with HCT-116 [8] and in the data set with NCI-H23 were less than 500 nM, less than 10000 nM and less than 10000 nM, respectively.
Regarding `Nc1cc(C(F)(F)F)c(-c2nc3c(c(N4CCOCC4)n2)CCN(C(=O)c2cc(Cc4n[nH]c(=O)c5ccccc45)ccc2F)C3)cn1`, the IC50 turned out to be 775 nM in the data set with HCT-116 [3], 504 nM with HCC1937 and 155 nM in the data set with MDA-MB-231.
Consider `NC(=O)c1cccc2cn(-c3ccc([C@]4(F)CCCNC4)cc3)nc12`, for which the IC50 in [9] was less than 100 nM.
For `C[C@@H]1COCCN1c1nc(-c2nncc3[nH]ccc23)nc2c1OC1CC2(S(C)(=O)=O)C1`, the figures for the IC50 with LoVo and at ATR/ATRIP [6] were 20.3 nM and 104 nM, respectively.
Consider `Cc1cc2ncnn2cc1Nc1ncc2c(n1)C1(CCC(C)(C)CC1)C(=O)N2C`, for which the bioavailability in data set [10] was found to be 114%.
As to `CC(C)(C)CC(=O)C(=O)N1CCN(C(=O)c2cc(Cc3n[nH]c(=O)c4c3CCCC4)ccc2F)CC1`, in [11], the IC50 is less than 200 nM.
For the compound `C[C@@H]1COCCN1c1nc(C(C)(C)C#N)c2[nH]nc(-c3ccn[nH]3)c2n1`, the results for the IC50 against ATR/ATRIP [12] and in the data set with LoVo were 3 nM and 55 nM, respectively.
Take `C[C@@H]1CN(c2cc(O[C@H]3CC[C@@H](Nc4ncccn4)CC3)c3nccnc3c2)CCO1`: the Ki in [13] is less than 100 nM.
Take `Nc1ncc(-c2nc3c(c(N4CCOCC4)n2)CCN(C(=O)c2cc(Cc4n[nH]c(=O)c5ccccc45)ccc2F)C3)cn1`: the values for the IC50 with HCT-116 [3], with HCC1937 and in the data set with MDA-MB-231 were 211 nM, 81 nM and 443 nM, respectively.
Regarding `COc1ccc(NC(=O)c2ccc(NC(=O)N3CCN(C(=O)c4cc(Cc5n[nH]c(=O)c6ccccc56)ccc4F)CC3)cc2)cc1`, the IC50 in data set [1] stood at 0.25 nM; in [14], 13.5 nM; in [15] it was 4.15 nM.
Turning to `NC(=O)c1cccc2cc(C(=O)N3CCN(c4nc(-c5cnc(N)cc5C(F)(F)F)nc(N5CCOCC5)n4)CC3)oc12`, the figures for the IC50 with HCT-116 [3], in the data set on HCC1937 and with MDA-MB-231 were 193 nM, 166 nM and 3410 nM, respectively.
Turning to `C[C@@H]1COCCN1c1cc(-c2ccnn2C)c2ncc(-c3ccn[nH]3)n2n1`, the IC50 at ATR/ATRIP [16] stood at 938 nM; with DU-145 it was 1220 nM; with NCI-H460, 907 nM.
For `Cc1ccc(-c2cc(N3CCOC[C@H]3C)nn3c(-c4ccn[nH]4)cnc23)cn1`, the IC50 at ATR/ATRIP [16] turned out to be 379 nM; in the data set on DU-145, 914 nM; with NCI-H460, 322 nM.
In data set [17], `Cc1ncc(-c2cc(NC[C@H](C)c3cccc4c(C5=NCCN5)ccnc34)ncn2)cn1` displayed an IC50 of 122 nM.
For `C[C@@H]1COC[C@H]2COc3c(nc(-c4ccnc5[nH]ccc45)nc3C3(C#N)CC3)N21`, the IC50 was found to be 10 nM at ATR/ATRIP [12] and 456 nM with LoVo.
`CC(C)n1c(=O)n(C)c2cnc3ccc(-c4ccc(OCCCN(C)C)nc4)cc3c21`: the IC50 is more than 30000 nM in data set [18], 3.98 nM in data set [19], more than 10000 nM in data set [23] and more than 10000 nM in data set [24]. Further, the Ratio IC50 in the data set listed under Homo sapiens [20], in the data set filed under Homo sapiens [21] and in the data set listed under Homo sapiens [22] was more than 1000 in each case.
